Reference: patent US20120177601A1, “TREATMENT OF HEPATITIS C VIRUS INFECTIONS” (THE USA AS REPRESENTED BY THE SECRETARY OF THE DEPARTMENT …, priority 2009, published 2012)
Read-outs that look alike come from different tables or passages of the source.

How the values were obtained:
[1] = system: Huh7.5FL replicon (full length Con1); assay: HCV replication in full-length (FL) replicon cells, real-time RT-PCR (ΔCT); type: cell-based; details: for Relative [HCV] [ΔCT]: overnight, Huh7.5FL, control vehicle = 1.0; for concentration showing significant antiviral activity / required to suppress HCV replication: FL replicon, 48 hr
Source text: (§1) Cell lines and cell culture. The human hepatoma cell line (Huh5-15) with replicating sub-genomic HCV RNA (Lohmann et al., 1999) was a kind gift of Dr. Volker Lohmann (Institute for Virology, Johannes-Gutenberg University, Mainz, Germany), and cultivated as described (Zhu et al., 2008). Huh7.5 cells harboring full length (Huh7.5FL) Conl replicons (Blight et al., 2002) were a kind gift of Dr. Charles Rice (Rockefeller University, New York, N.Y.). These cells were passed as recommended by their laboratory of origin (Blight et al., 2002). An infectious clone of HCV, J6/JFH, was inoculated into Huh7.5 cells and the cultures passed as previously described (Lindenbach et al., 2005). Cells were incubated with BV, BR, or FeCl2 for 24-48 h in DMEM containing 5% FBS.
(§2) Quantitative Real-time RT-PCR. Total RNA was extracted from cells using Trizol reagent (Invitrogen, Carlsbad, Calif.), treated with Turbo RNase free DNase (Ambion, TX), and processed as described (Zhu et al., 2008). To assess replication, the primers and probe designed by Takeuchi et al. (1999) targeting sequences located in 5′UTR (nt130-290) were employed as described for each replicon line (Blight et al., 2002; Lohmann et al., 2003). Real-time RT-PCR was performed using Taq DNA polymerase with the TaqMan Universal PCR Master Mix Protocol (Perkin Elmer Applied Biosystems, Foster City, Calif.). Quantitation was performed using the comparative cycle threshold (ΔCT) method as described previously (Abdalla et al., 2004).

[2] = system: Huh5-15NS replicon (sub-genomic HCV RNA); assay: HCV replication in nonstructural (NS) replicon cells, real-time RT-PCR (ΔCT); type: cell-based; details: for Relative [HCV] [ΔCT]: overnight, Huh5-15NS, control vehicle = 1.0; for concentration showing significant antiviral activity / required to suppress HCV replication: NS replicon, 48 hr
Source text: as §1, §2

[3] = molecular target: T1, HCV NS3/4A recombinant protease (UniProt O92972); type: biochemical
T1 construct: other: recombinant protease, 591 nm/622 nm FRET peptide, regression analysis; other: recombinant NS3/4A, Lineweaver-Burk; other: BV versus BR; effect o; fused on or other part: By knowledge of the vendor's product, the NS4A cofactor segment of the same polyprotein is fused to the N-terminus of the NS3 protease domain
T1 sequence (O92972 1027-1657): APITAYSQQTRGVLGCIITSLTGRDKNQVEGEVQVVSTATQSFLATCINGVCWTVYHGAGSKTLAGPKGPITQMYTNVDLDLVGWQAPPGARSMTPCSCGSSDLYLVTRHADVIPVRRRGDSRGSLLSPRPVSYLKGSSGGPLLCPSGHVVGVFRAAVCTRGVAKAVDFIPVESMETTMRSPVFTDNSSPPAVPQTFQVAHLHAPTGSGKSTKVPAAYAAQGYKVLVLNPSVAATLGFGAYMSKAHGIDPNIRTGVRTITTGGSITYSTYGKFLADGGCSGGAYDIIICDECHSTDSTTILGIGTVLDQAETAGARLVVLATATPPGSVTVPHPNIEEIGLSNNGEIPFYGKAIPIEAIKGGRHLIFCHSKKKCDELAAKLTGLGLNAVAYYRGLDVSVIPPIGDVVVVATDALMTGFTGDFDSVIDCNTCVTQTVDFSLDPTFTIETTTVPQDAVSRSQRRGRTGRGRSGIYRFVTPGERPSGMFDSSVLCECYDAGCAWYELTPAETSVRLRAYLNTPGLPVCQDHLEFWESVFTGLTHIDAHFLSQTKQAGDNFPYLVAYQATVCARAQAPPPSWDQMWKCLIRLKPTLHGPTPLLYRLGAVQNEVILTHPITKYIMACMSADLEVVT
Description: In vitro assay of HCV NS3/4A recombinant protease. Protease activity was determined fluorometrically with the SensoLyte 620 HCV Protease Assay (AnaSpec, Fremont, Calif.) using a wide wavelength excitation/emission (591 nm/622 nm respectively) fluorescence energy transfer peptide according to the manufacturer's instructions. Control incubations with BV or metabolite only were performed to eliminate or correct for autofluorescence or quenching. A competitive inhibitor of the NS3/4A protease, AnaSpec #25346, was used as positive control.

[4] = unconjugated form; cited from earlier work
HIV-1 protease = HIV-1 protease (Human immunodeficiency virus type 1 group M subtype B, UniProt P04585); details: McPhee et al. 1996; cited from earlier work
[5] = system: HCV RNA in NS and FL replicons after BVR siRNA; type: cell-based; details: BV 20 μM or BR 100 μM overnight, both replicon lines, vs scrambled RNA
Description: as §2
Biliverdin reductase (BVR) knockdown. Biliverdin reductase (BVR) siRNA and control (scrambled) siRNA were purchased from Santa Cruz Biotechnology (sc-44650 and sc-37007). BVR knockdown was performed as described previously (Ryter et al., 2007). Efficiency of the knockdown was monitored by semiquantitative densitometry of BVR WB.

[6] = in vivo; cited from earlier work
[7] = system: NS5A and core protein in NS and FL replicons; assay: Western blot / immunoprecipitation of HCV proteins in replicons; type: cell-based; details: 24 hr, BV 20 μM, BR 200 μM, FeCl2 100 mM as printed
Description: Western blot analysis. Western blots (WB) were performed as previously described using enhanced chemiluminescence for signal detection (ECLTM, Amersham) (Abdalla et al., 2005). Signal intensities were quantified using Image J software (NIH).
Immunoprecipitation of NS5A. Log-phase replicons were treated with various concentrations of BV for 48 hr, washed, lysed in cell lysis buffer (Cell Signaling Technology, Beverly, Mass.) and clarified by cold centrifugation (14,000×g for 10 min). An aliquot of supernatant containing 100 μg protein was incubated with 1 μg of HCV NS5A monoclonal antibody (Meridian Life Science, Saco, Me.) and 20 μl of rProtein G Agarose (Invitrogen, CA) overnight at 4° C. The agarose was collected by 3000×g spin, washed three times with ice-cold PBS, then dissolved in 40 μL 2× Laemmli sample buffer (Bio-Rad, CA) and assayed by WB.

[8] = recombinant protease, 591 nm/622 nm FRET peptide, regression analysis; read-out: IC50, inhibition of HCV NS3/4A protease

In the case of hemin [Heme], the “Relative [HCV] [ΔCT]” value ([1]; Heme 5 uM) is reported as 0.22, the “Relative [HCV] [ΔCT]” value ([1]; Heme 10 uM) is reported as 0.08 and the “Relative [HCV] [ΔCT]” value ([1]; Heme 20 uM) is reported as 0.04. For the same compound, the “lowest level with apparent antiviral effect” value ([1]; hemin, replicons) was 5, the “Relative [HCV] [ΔCT]” value ([2]; Heme 5 uM, mean of four) was 0.27 and the “Relative [HCV] [ΔCT]” value ([2]; Heme 10 uM) was 0.09. For the same compound, the “Relative [HCV] [ΔCT]” value ([2]; Heme 20 uM) was 0.03 and the “lowest level with apparent antiviral effect” value ([2]; hemin, replicons) was 5.

With `C=CC1=C(C)/C(=C/c2[nH]c(Cc3[nH]c(/C=C4\NC(=O)C(C)=C4C=C)c(C)c3CCC(=O)O)c(CCC(=O)O)c2C)NC1=O` [Bilirubin IXα, bilirubin-IX-α] the IC50 [3, 8] was over 300 µM, the “concentration showing significant antiviral activity / required to suppress HCV replication” value [1] was 200 µM and the “concentration showing significant antiviral activity / required to suppress HCV replication” value [2] was 200 µM.

In the case of `C=CC1=C(C)/C(=C/c2[nH]c(Cc3[nH]c(/C=C4\NC(=O)C(C)=C4C=C)c(C)c3CCC(=O)O)c(CCC(=O)O)c2C)NC1=O` [BR, Bilirubin], the IC50 ([3]; read-out: IC50, inhibition of HCV NS3/4A protease; recombinant protease, 591 nm/622 nm FRET peptide, regression analysis) is given as over 300 µM, the solubility in water [4] is given as “not soluble in water” and the Ki (HIV-1 protease) is given as 0.8 µM. The “effect of BVR knockdown on antiviral activity (HCV RNA)” value [5] was “no significant effect” and the oral bioavailability [6] was “relatively poor oral bioavailability”.

`C=CC1=C(C)/C(=C/C2=NC(=C\c3[nH]c(/C=C4/NC(=O)C(C)=C4C=C)c(C)c3CCC(=O)OC)/C(CCC(=O)OC)=C2C)NC1=O` [Biliverdin dimethylester, biliverdin dimethyl ester] showed an IC50 [3, 8] of over 300 µM.

In the case of “Bilirubin mixed isomers [Bilirubin (mixed isomers)]”, the IC50 [3, 8] is reported as over 300 µM, the “concentration showing significant antiviral activity / required to suppress HCV replication” value [1] is reported as 200 µM and the “concentration showing significant antiviral activity / required to suppress HCV replication” value [2] is reported as 200 µM.

With `CCC1=C(C)/C(=C/c2[nH]c(Cc3[nH]c(/C=C4\NC(=O)C(C)=C4CC)c(C)c3CCC(=O)O)c(CCC(=O)O)c2C)NC1=O` [Mesobilirubin, mesobilirubin] the IC50 [3, 8] was over 300 µM.

In the case of `[Cl][Fe][Cl]` [FeCl2, reference compound], the “HCV RNA” value ([1]; FeCl2 100 mM as printed, replicon line not specified, not shown) is reported as “diminishing HCV RNA”, the “NS5A protein level (WB)” value ([7]; both replicon lines) is reported as “decreased” and the “core protein level (WB)” value ([7]; full-length replicons) is reported as “decreased”.
